Assay results from patent US12416052B2, “Capturing, concentrating, and detecting microbes in a sample using magnetic ionic liquids and recombinase polymerase amplification” (priority 2019, dated 2025).
Entries after “also recorded” stand apart in the source; their conditions may differ.

How the values were obtained:
[1] = system: S. typhimurium ATCC 14028; test: Exposure of cells and plating on non-selective (TSA) and selective (BSA) agar (viability, injury, toxicity); assay type: cell-based, Salmonella enterica; conditions: exposure 0 to 15 min, 15 μL MIL
Procedure: To examine whether exposure time to the Ni(II) MIL affected cell viability, MIL-based whole-cell extraction was performed using the Ni(II) MIL, and cell-enriched back-extraction media were enumerated at 0, 5, 10 and 15 min on both TSA and BSA. To evaluate toxicity of the [EMIM^+][SCN^−] IL, one milliliter of diluted S. typhimurium ATCC 14028 cell suspension was added to a 4-mL screw cap glass vial. A 5% (vol/vol) or 50% (vol/vol) aqueous solution of 1-ethyl-3-methylimidazolium thiocyanate (“[EMIM^+][SCN^−]”) (IoLiTec, Tuscaloosa, AL, USA) was added and mixed by vortexing for 30 s. Aliquots were enumerated at 0, 5, 10 and 15 min using TSA and BSA.
One milliliter of diluted S. typhimurium ATCC 14028 cell suspension was added to a 4-mL screw cap glass vial. Fifteen microliters of either the Dy(III) MIL or 2-10 μL of 100 mM DyCh solution or 10 mg of the ammonium tetra(hexafluoroaceto)dysprosium salt (15) ([NH4^+][Dy(hfacac)4^−]) (“Dy(III) ammonium salt”) was added and dispersed by vortex agitation for 30 s. Aliquots of the Dy(III) MIL- or Dy(III) ammonium salt-exposed cell suspension were enumerated using square TSA or BSA plates (BD).
Because culture-based methods depend on sample preparation steps that preserve bacterial viability, potential deleterious cytotoxic effects imparted by MIL extractants must be considered. To begin our further study of MIL-bacterial interactions, we selected S. typhimurium ATCC 14028 as a model gram-negative pathogen and the Ni(II) MIL as extractant. Briefly, a 1 mL aliquot of TSB was inoculated with 1×10^5 CFU mL^−1 of bacteria and spiked with 15 μL of the Ni(II) MIL, and the general schematic for MIL-based extraction and recovery followed as shown in FIG. 7B. After extraction, 10 μL aliquots of the back-extraction solution were enumerated at 0, 5, 10 and 15 min using TSA and BSA. Average CFU counts were compared to a standard that was not exposed to the Ni(II) MIL. […] To better understand the data in FIG. 8, statistical analyses of Ni(II) MIL capture precision and CFU count variation as a function of MIL exposure time were performed. Variation in MIL capture may stem from inherent randomness of MIL dispersion and coalescence behaviors.
The effects of 5% or 50% (vol/vol) aqueous solutions of the [EMIM^+][SCN^−] IL on the viability of the cells were also evaluated. Average CFU counts were compared to a standard not exposed to [EMIM^+][SCN^−]. In our hands, when S. typhimurium was exposed to 50% (vol/vol) solutions of [EMIM^+][SCN^−], no recovery was observed on either TSA or BSA after 5 min of exposure.
To gain further insight into this phenomenon, the effect of free elemental dysprosium was evaluated by subjecting the cells to 0.1 mM and 1.0 mM solutions of DyCl3. The cells were exposed to the metal salt solutions for 30 s and subsequently plated on selective and non-selective media.
While the metal did show cytotoxicity, it cannot be completely responsible for the Dy(III) MIL's effect on the cells, as no flocculation was seen and growth was still observed. Since both the Ni(II) and the Dy(III) MILs contain identical cations ([P6,6,6,14^+]), the role of the anion structure was evaluated. The anion of the Dy(III) MIL contains one additional hexafluoroacetylacetonate ligand than the Ni(II) MIL (FIG. 7), making the coordination geometry of the two complexes different. To test the effects of the anion structure, cells were subjected to 10 mg of the Dy(III) ammonium salt. After a 30 second vortex, similar flocculation was observed as when the cells were exposed to the native Dy(III) MIL.

E. amylovora Ea935 = test: MIL-based whole-cell extraction; set-up: species or system Erwinia amylovora; conditions: EF determined using Columbia Agar
Procedure: (§1) A universal schematic for MIL-based cell extraction is depicted in FIG. 7B. A 1 mL volume of diluted cell suspension was added to a flat-bottomed 4-mL screw cap glass vial. Fifteen microliters of either the Ni(II) or Dy(III) MIL was added and dispersed into microdroplets by vortex agitation for 30 s. The aqueous phase was decanted following dispersive extraction, and the MIL was subjected to a brief wash step using 1 mL of nuclease-free water (Integrated DNA Technologies, Coralville, IA, USA) to ensure adequate removal of loosely or incidentally bound cells. […]
(§2) Following back-extraction, aliquots of the cell-enriched back-extraction medium were serially diluted in 0.1% peptone water and a 10 μL aliquot of each dilution was applied to a separate lane on square plates containing an appropriate agar medium. […] Colonies were counted and colony forming units (CFU) were determined. The enrichment factor (EF) for MIL-based extraction was calculated using Equation 1, where CMIL represents the concentration of bacteria in suspension following extraction using the MIL and CS is the initial concentration of bacteria in the sample.

[2] = system: Y. enterocolitica ATCC 9160; test: MIL-based whole-cell extraction; set-up: species or system Yersinia enterocolitica; conditions: EF determined using Tryptic Soy Agar
Procedure: as §1, §2

[3] = system: Y. enterocolitica ATCC 2371; test: MIL-based whole-cell extraction; set-up: species or system Yersinia enterocolitica; conditions: EF determined using Tryptic Soy Agar
Procedure: as §1, §2

K. aerogenes ATCC 29940 = test: MIL-based whole-cell extraction; set-up: species or system Klebsiella aerogenes; conditions: EF determined using Tryptic Soy Agar
Procedure: as §1, §2

SMILES: CCCCCCCCCCCCCC[P+](CCCCCC)(CCCCCC)CCCCCC.O=C([CH-]C(=O)C(F)(F)F)C(F)(F)F.O=C([CH-]C(=O)C(F)(F)F)C(F)(F)F.O=C([CH-]C(=O)C(F)(F)F)C(F)(F)F.[Ni+2] [Ni(II) MIL, [P66614^+][Ni(hfacac)3^−]]
- injury to S. typhimurium: average CFU counts on TSA and BSA [1]: did not cause detectable injury; also recorded: appeared to be similar
- Enrichment Factor (E. amylovora Ea935): 10
- Enrichment Factor [2]: 5
- Enrichment Factor [3]: 5
- Enrichment Factor (K. aerogenes ATCC 29940): 71
